Assay results taken from patent US20240368157A1, “FORMS AND COMPOSITIONS OF A JAK2 INHIBITOR” (Ajax Therapeutics, Inc., priority 2023, published 2024).

Legend:
[1] = system: JAK2-mediated pSTAT5 signaling in constitutively active essential thrombocytopenia cells carrying the V617F mutation; experiment: SET2-pSTAT5 Cellular Assay; type: cell-based; details: Homo sapiens, SET-2, 4 hours
Experimental: This assay measures inhibition of JAK2-mediated pSTAT5 signaling in constitutively active essential thrombocytopenia cells carrying the V617F mutation. Cells are harvested from a flask into cell culture medium, and the number of cells is counted. The cells are diluted with culture medium and 100 μL of cell suspension (50000/well) is added into each well of a 96-well cell culture plate. A solution of test compound is added to the assay plate. The plates are covered with a lid and placed in a 37° C. 5% CO2 incubator for 4 hours. After 4 hours, the cells are spun, and the cell pellets are re-suspended with 100 μL cold PBS. Then, the cells are spun again at 4° C. and 4000 rpm for 5 min. PBS is aspirated, and 25 μL lysis buffer (with protease and phosphatase inhibitor cocktail) is added to each cell pellet. The cell lysate is shaken at 4° C. for 20 min to fully lyse the cells. The cell lysate is spun at 4° C. and 4000 rpm for 15 min, and then the supernatant is transferred into a new plate and stored at −80° C. Meso-scale discovery (MSD) is used to analyze plates as follows: a standard MSD plate is coated with capture antibody in PBS (40 μL/well) and is incubated at 4° C. overnight with shaking. […] MSD reading buffer (1×) is added to the plates (150 μL/well), and they are diluted from 4× with water. […]

Caco2 Permeability Assay = type: in vitro ADME; details: human, Caco-2, pH 7.4; for Papp A→B at 2 h, 5 μM: apical to basolateral; for efflux ratio at 2 h, 5 μM: read-out: Efflux Ratio (ER)
Experimental: Preparation of Caco-2 Cells: 50 μL and 25 mL of cell culture medium are added to each well of a Transwell® insert and reservoir, respectively. Then, the HTS Transwell® plates are incubated at 37° C., 5% CO2 for 1 hour before cell seeding. Caco-2 cell cells are diluted to 6.86×10^5 cells/mL with culture medium, and 50 μL of cell suspension are dispensed into the filter well of the 96-well HTS Transwell® plate. Cells are cultivated for 14-18 days in a cell culture incubator at 37° C., 5% CO2, 95% relative humidity. Cell culture medium is replaced every other day, beginning no later than 24 hours after initial plating.
Preparation of Stock Solutions: 10 mM stock solutions of test compounds arc prepared in DMSO. The stock solutions of positive controls are prepared in DMSO at the concentration of 10 mM. Digoxin and propranolol are used as control compounds in this assay.
Assessment of Cell Monolayer Integrity: Medium is removed from the reservoir and each Transwell® insert and is replaced with prewarmed fresh culture medium. Transepithelial electrical resistance (TEER) across the monolayer is measured using Millicell Epithelial Volt-Ohm measuring system (Millipore, USA). The Plate is returned to the incubator once the measurement is done. The TEER value is calculated according to the following equation: TEER measurement (ohms)×Area of membrane (cm^2)=TEER value (ohm·cm^2). A TEER value greater than 230 ohm·cm^2 indicates a well-qualified Caco-2 monolayer.
Assay Procedure: The Caco-2 plate is removed from the incubator and washed twice with pre-warmed HBSS (10 mM HEPES, pH 7.4), and then incubated at 37° C. for 30 minutes. The stock solutions of control compounds are diluted in DMSO to get 1 mM solutions and then diluted with HBSS (10 mM HEPES, pH 7.4) to get 5 μM working solutions. The stock solutions of the test compounds are diluted in DMSO to get 1 mM solutions and then diluted with HBSS (10 mM HEPES and 4% BSA, pH 7.4) to get 5 μM working solutions. The final concentration of DMSO in the incubation system is 0.5%. To determine the rate of drug transport in the apical to basolateral direction. 75 μL of 5 μM working solutions of test compounds are added to the Transwell® insert (apical compartment) and the wells in the receiver plate (basolateral compartment) are filled with 235 μL of HBSS (10 mM HEPES and 4% BSA, pH 7.4). To determine the rate of drug transport in the basolateral to apical direction, 235 μL of 5 μM working solutions of test compounds are added to the receiver plate wells (basolateral compartment) and then the Transwell® inserts (apical compartment) are filled with 75 μL of HBSS (10 mM HEPES and 4% BSA, pH 7.4). […]

IC50 [1] [nM]	Papp A→B at 2 h, 5 μM (Caco2 Permeability Assay) [×10⁻⁶ cm/s]	efflux ratio at 2 h, 5 μM (Caco2 Permeability Assay)	SMILES
< 125	7	2 to 5	CN(C)C(=O)Nc1cc(Oc2cnc3nc(Nc4cc(C(F)(F)F)cn(C)c4=O)n(C)c3c2C#N)ccn1 [Compound 1, 3-(4-((7-cyano-1-methyl-2-((1-methyl-2-oxo-5-(trifluoromethyl)-1,2-dihydropyridin-3-yl)amino)-1H-imidazo[4,5-b]pyridin-6-yl)oxy)pyridin-2-yl)-1,1-dimethylurea]
200 to 1000	0.4	10 to 30	CCN1CCN(Cc2ccc(Nc3nc4ccc(Oc5ccnc(NC(C)=O)c5)cc4n3C)cc2C(F)(F)F)CC1 [Compound R-1, reference compound]
